Experimental data from patent publication US20230365596A1, “CRYSTAL FORMS OF PYRIDOPYRAZOLE COMPOUNDS AND PREPARATION METHOD THEREFOR” (GUANGZHOU BAIYUNSHAN PHARMACEUTICAL HOLDINGS CO., LTD. …, priority 2020, published 2023).

How the values were obtained:
[1] = Pharmacokinetic evaluation in mice (IV and PO); format: in vivo; details: mouse, plasma, female Balb/c mice
Description: Experimental procedure: A 0.1 mg/mL clear solution of the test compound in the corresponding solvent medium (see Table 22) was injected into female Balb/c mice (fasting overnight, 7-9 weeks old) via tail vein at a dose of 0.2 mg/kg. About 30 μL of blood was collected from jugular vein or tail vein at 0.0833, 0.25, 0.5, 1.0, 2.0, 4.0, 8.0 and 24 h after intravenous administration. 0.2 mg/mL of the test compound suspended in the corresponding solvent medium (see Table 22) was given to female Balb/c mice (fasting overnight, 7-9 weeks old) by gavage at a dose of 2 mg/kg. The experimental conditions were detailed in Table 22. At 0.0833, 0.25, 0.5, 1.0, 2.0, 4.0, 6.0, 8.0 and 24 h after oral administration, about 30 μL of blood was collected from the jugular vein or tail vein of the female Balb/c mice. The blood was placed in an anticoagulant tube in which EDTA-K2 had been added, and plasma was separated by centrifugation. The plasma concentration was determined by LC-MS/MS method, and the relative pharmacokinetic parameters were calculated using WinNonlin™ Version 6.3 (Pharsight, Mountain View, CA) pharmacokinetic software by non-compartment model linear logarithmic trapezoidal method. [table]

[2] = test system: Ba/F3-CCDC6-RET cell xenograft tumor model; assay: Analysis of tumor growth inhibition (TGI); format: in vivo, BALB/c nude female mice; details: 10 mg/kg D0-D13 / 5 mg/kg D14-D17 / 2.5 mg/kg D18-D28, BID
Description: Ba/F3-CCDC6-RET cell strain was cultured using 1640 medium (Biological Industries)+10% fetal bovine serum (BI)+1% double antibody (Penicillin Streptomycin solution, Coring, USA) at 37° C. with 5% CO2 and subcultured twice a week. When the cell saturation is 80-90%, cells were collected, counted, and inoculated subcutaneously into the right axillary of BALB/c nude female mice (6-8 weeks). After the inoculation was completed, the tumor growth status was observed day by day. When the average tumor volume reached about 165.77 mm^3, the mice were randomly divided into groups, with 6 mice per group, and administration was started.
The health status and death of the animals were detected daily. Routine examinations included tumor growth, activity, diet, weight, eyes, hair and other abnormal behaviors of the animals, and the tumor volume and weight were measured twice a week (Tuesday and Friday).
The inhibitory effect of the compound on tumor growth was evaluated by the relationship between tumor volume and time. The tumor volume was measured by vernier caliper, with the formula being TV=0.5 a×b^2, wherein, “a” was the long diameter of the tumor and “b” was the short diameter of the tumor. […]
it was calculated by the following formula: […]

RET = RET (Homo sapiens, UniProt P07949); assay: In vitro enzyme activity test, RET kinase; format: biochemical; details: ATP 20 μM
Description: (§1) The enzyme activity was experimentally detected by Z'-LYTE™ kinase test, and the inhibitory effect of the compound on RET and RET (V804M) kinase was evaluated with the IC50 value of the compound as an indicator. The concentration of the compound used for the RET and RET (V804M) kinase test was diluted by a factor of 3, giving 10 concentrations from 3 μM to 0.152 nM. The content of DMSO in the detection reaction was 1%. Basic reaction buffer, 20 mM hydroxyethyl piperazine-ethanesulfonic acid (Hepes) (pH 7.5) buffer, 10 mM MgCl2, 1 mM ethylene glycol bis(aminoethyl ether)tetraacetic acid (EGTA), 0.02% polyoxyethylene dodecyl ether (Brij35), 0.02 mg/mL bovine serum protein, 0.1 mM Na3VO4, 2 mM dithiothreitol (DTT) and 1% DMSO. The compound to be tested was dissolved in 100% DMSO system and diluted to 10 mM for use. Integra Viaflo Assist was used for solution dilution. Test conditions: The concentration of RET enzyme was […], the concentration of the peptide substrate CHKtide was 1000 μM, and the concentration of ATP was 20 μM; and the concentration of RET (V804M) enzyme was […], the concentration of substrate peptide was 1000 μM, and the concentration of ATP was 30 μM. […]. Phosphoric acid with a concentration of 0.5% was added to the kinase reaction solution to stop the reaction, and Envision instrument was used for plate reading. […]

RET (V804M) = RET (V804M) (Homo sapiens, UniProt P07949, V804M); assay: In vitro enzyme activity test, RET (V804M) kinase; format: biochemical; details: ATP 30 μM
Description: as §1

[3] = Solid stability study, long-term conditions (XRPD); format: physicochemical; details: for Crystal form (XRPD): 3 months
Description: The flasks were placed under 40° C./75% RH conditions for 3 months or under 25° C./60% RH conditions for 3 months, then sampled for XRPD detection, and the detection results were compared with the initial test results of Day 0.

[4] = Hygroscopicity study by dynamic vapor sorption (DVS); format: physicochemical; details: 25° C. and 80% RH
Description: • Instrument model: SMS DVS Intrinsic dynamic vapor sorption instrument • Test conditions: A sample (10-15 mg) is taken and placed in a DVS sample tray for testing.
Detailed DVS Parameters are as Follows: • Temperature: 25° C. • Balance: dm/dt=0.01%/min (shortest: 10 min, longest: 180 min) • Drying: at 0% RH for 120 min • RH (%) test gradient: 10% • RH (%) test gradient range: 0%-90%-0%
Hygroscopicity Assessment is Classified as Follows:
SMS DVS Intrinsic Dynamic Vapor Sorption Instrument

[5] = Solid stability experiment, high temperature and high humidity (XRPD); format: physicochemical
From the text: For samples placed under high temperature and high humidity, use aluminum foil to seal the bottle, and prick some holes on the aluminum foil to ensure that the sample can fully contact with the ambient air. The samples placed under different conditions were sampled for XRPD detection on Days 5 and 10, and the test results were compared with the initial test results on Day 0.

RET (V804M), sequence (P07949 29-1114 V804M): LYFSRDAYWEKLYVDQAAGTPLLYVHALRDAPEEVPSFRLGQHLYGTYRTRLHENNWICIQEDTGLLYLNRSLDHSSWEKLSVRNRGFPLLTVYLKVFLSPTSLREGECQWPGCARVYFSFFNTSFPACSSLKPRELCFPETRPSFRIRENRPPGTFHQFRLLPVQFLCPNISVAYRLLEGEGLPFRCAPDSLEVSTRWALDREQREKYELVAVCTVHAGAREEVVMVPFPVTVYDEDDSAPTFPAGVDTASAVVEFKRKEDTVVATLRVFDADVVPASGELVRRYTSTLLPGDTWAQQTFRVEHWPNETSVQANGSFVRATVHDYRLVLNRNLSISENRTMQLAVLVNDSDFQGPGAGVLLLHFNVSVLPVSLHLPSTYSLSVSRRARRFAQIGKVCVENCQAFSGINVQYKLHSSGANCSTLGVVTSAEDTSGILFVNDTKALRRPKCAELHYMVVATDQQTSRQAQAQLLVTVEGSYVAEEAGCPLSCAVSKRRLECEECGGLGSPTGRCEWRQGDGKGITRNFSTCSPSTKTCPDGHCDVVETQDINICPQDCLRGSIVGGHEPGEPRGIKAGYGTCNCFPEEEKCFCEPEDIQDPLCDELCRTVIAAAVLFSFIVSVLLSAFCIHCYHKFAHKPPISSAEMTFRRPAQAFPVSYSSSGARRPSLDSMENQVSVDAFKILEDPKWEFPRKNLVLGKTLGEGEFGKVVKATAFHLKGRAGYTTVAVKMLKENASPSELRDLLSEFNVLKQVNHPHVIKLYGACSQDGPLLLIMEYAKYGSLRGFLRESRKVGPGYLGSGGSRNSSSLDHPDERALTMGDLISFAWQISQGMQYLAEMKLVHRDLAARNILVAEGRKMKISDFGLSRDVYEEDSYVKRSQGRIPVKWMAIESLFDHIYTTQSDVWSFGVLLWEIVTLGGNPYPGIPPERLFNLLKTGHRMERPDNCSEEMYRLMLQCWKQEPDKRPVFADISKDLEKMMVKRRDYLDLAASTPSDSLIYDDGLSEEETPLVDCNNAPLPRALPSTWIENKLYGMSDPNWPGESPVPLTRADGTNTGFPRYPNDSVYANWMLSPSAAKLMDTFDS
RET, sequence (P07949 29-1114): as the sequence (P07949 29-1114 V804M) above, with M776V counted along it

COc1ccc(CN2C3CC2CN(c2cnc(-c4cc(C5=CCOCC5)cn5ncc(C#N)c45)cn2)C3)cn1 [listing 1 of 2 here]
AUC(0-t) ([1]; IV 0.2 mg/kg): 2.79 µM·h
clearance ([1]; IV 0.2 mg/kg, read-out: Cl (plasma clearance)): 2.3 mL/min/kg
half-life ([1]; IV 0.2 mg/kg, read-out: T1/2 (elimination half-life) (converted)): 2.6 h
Vd ([1]; IV 0.2 mg/kg, read-out: Vdss (apparent steady-state distribution volume)): 0.5 L/kg
AUC(0-t) ([1]; PO 2 mg/kg): 26.9 µM·h
Cmax ([1]; PO 2 mg/kg): 5.34 µM
Tmax ([1]; PO 2 mg/kg): 2 h
TGI % (tumor volume on Day 23 after administration) [2]: 98%
IC50 (RET): 0.72 nM
IC50 (RET (V804M)): 5.86 nM

COc1ccc(CN2C3CC2CN(c2cnc(-c4cc(C5=CCOCC5)cn5ncc(C#N)c45)cn2)C3)cn1 [listing 2 of 2 here]
Crystal form (XRPD) ([3]; 25° C./60% RH): Crystal form A
Crystal form (XRPD) ([3]; 40° C./75% RH): Crystal form A
Crystal form change (in words) ([3]; all stability conditions (40° C./75% RH, 25° C./60% RH, 3 months)): no crystal form change
Solid stability (in words) ([3]; long-term conditions): good stability
Classification of hygroscopicity [4]: slightly hygroscopic
ΔW (hygroscopic weight gain) [4]: 0.8%
Crystal form (XRPD) ([5]; High humidity (room temperature/relative humidity 92.5%, open), Day 5): Crystal form A
Crystal form (XRPD) ([5]; High humidity (room temperature/relative humidity 92.5%, open), Day 10): Crystal form A
Crystal form (XRPD) ([5]; High temperature (60° C., open), Day 5): Crystal form A
Crystal form (XRPD) ([5]; High temperature (60° C., open), Day 10): Crystal form A
Solid stability (in words) ([5]; high temperature and high humidity): good stability
